The values below come from ChEMBL document CHEMBL1201862, “PubChem BioAssay data set” (2004).

SMILES strings stand for the structures.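 The compound was tested at five concentrations on cells cultured in 96-well plates, with a 48-hour exposure period. GI50: concentration for 50% inhibition of growth.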 The source made the active and inactive calls. Cut-off read from the data, not from the text of the source: active = GI50 up to about 1.1 µM and inactive = higher.

Holding throughout (assay): NCI tumour cell line growth inhibition, 48 h
Test [1] relates to CAKI-1.
The subject of test [2] is COLO 205.
Test [3] has as its system HCT-116.
In test [4] the test system is HCT-15.
The subject of test [5] is HOP-62.
The test system of test [6] is IGROV-1.
The subject of test [7] is K562.
Test [8] relates to LOX IMVI.
Test [9] has as its system OVCAR-4.
In test [10] the test system is OVCAR-5.
In test [11] the test system is RPMI-8226.
In test [12] the test system is SF-268.
The test system of test [13] is SK-MEL-28.
The test system of test [14] is SK-MEL-5.
The subject of test [15] is SW-620.
For test [16], the system named is A549.
Test [17] has as its system HCC 2998.
The subject of test [18] is RXF 393.

`CC1=CC(=O)NP(=O)(Oc2ccc(C)cc2)N1` (stereo unspecified): the GI50 was > 100 µM (inactive) in [1]; > 100 µM (inactive) in test [2]; > 100 µM (inactive) in test [3]; over 100 µM in test [4]; > 100 µM (inactive) in test [5]; > 100 µM (inactive) in [6]. In addition, the GI50 in [7], in test [8], in test [9], in [10], in [11] and in test [12] was > 100 µM (inactive) each time. Also, the GI50 in test [13], in test [14] and in test [15] was > 100 µM (inactive) each time.
In the case of `O=C1C2=C(CCCCC2)C2CCCCC12O` (stereo unspecified), the GI50 in test [16], in [2], in test [17], in test [3], in [5] and in [6] was > 100 µM (inactive) in each case. Besides, the GI50 in test [7], in test [8], in test [11], in [18], in test [12] and in test [13] was > 100 µM (inactive) throughout. For the same compound, the GI50 in [15] is > 100 µM (inactive).
`CN1C/C(=C\c2ccccc2)C2=NN(C(N)=S)[C@H](c3ccccc3)[C@@H]2C1`: the GI50 in [16] was 52 µM (inactive); in [2] it was 38.5 µM (inactive); in test [17], > 100 µM (inactive); in [3], 37.3 µM (inactive); in test [4], over 100 µM; in [5] it was > 100 µM (inactive). In addition, the GI50 in [6] is > 100 µM (inactive); in test [7] it was 36 µM (inactive); in [8], > 100 µM (inactive); in [9], 56.6 µM (inactive); in test [10], > 100 µM (inactive); in [11] it was 0.276 µM (active). Also, the GI50 was 34.4 µM (inactive) in test [18], > 100 µM (inactive) in [12], > 100 µM (inactive) in test [13] and > 100 µM (inactive) in test [15].
`NC(=O)C(=O)N/N=C1\C(=O)N(c2ccc(Cl)cc2Cl)C(=O)C1C(=O)Nc1ccc(Cl)cc1Cl` (stereo unspecified): the GI50 in test [16] was > 100 µM (inactive); in test [1], > 100 µM (inactive); in test [2], > 100 µM (inactive); in [17] it was > 100 µM (inactive); in [3] it was > 100 µM (inactive); in [4], over 100 µM. Moreover, the GI50 in [5], in [6], in test [7], in test [8], in test [10] and in [11] was > 100 µM (inactive) each time. In addition, the GI50 in test [18], in test [12], in test [13], in test [14] and in test [15] was > 100 µM (inactive) each time.
Consider `CC1OC(n2cc(C(F)(F)F)c(=O)[nH]c2=O)C=CC1=O` (stereo unspecified), for which the GI50 was 47.3 µM (inactive) in [16]; 19.3 µM (inactive) in test [2]; 18.3 µM (inactive) in test [17]; 16.2 µM (inactive) in [3]; 20.7 µM in test [4]; 27.7 µM (inactive) in test [5]. The GI50 was 20 µM (inactive) in test [6]; 27.5 µM (inactive) in [7]; 17.6 µM (inactive) in test [8]; 13.4 µM (inactive) in [9]; 19.4 µM (inactive) in test [10]; 13.5 µM (inactive) in test [11]. For the same compound, the values for the GI50 in test [12], in test [13] and in [15] were 39.2 µM (inactive), 21 µM (inactive) and 17.6 µM (inactive), respectively.
Consider `COC(=O)C1=C(C(=O)OC)C2C(C)=CC(C)=CN2C(C#N)=C(SC)S1` (stereo unspecified), for which the GI50 was 37.2 µM (inactive) in [16]; 20.3 µM (inactive) in test [1]; 17.4 µM (inactive) in test [2]; 37.2 µM (inactive) in [17]; 15 µM (inactive) in test [3]; 19.7 µM in [4]. Moreover, the GI50 was 51.8 µM (inactive) in test [5]; > 10 µM (inactive) in [6]; 20.7 µM (inactive) in test [7]; 17.9 µM (inactive) in test [8]; 35.3 µM (inactive) in [10]; 21.6 µM (inactive) in [11]. Moreover, the GI50 in test [18] is 16.1 µM (inactive); in [12], 20.6 µM (inactive); in test [13] it was 19.3 µM (inactive); in test [14] it was 14.6 µM (inactive); in test [15] it was 19.9 µM (inactive).
For the compound `O=C(COc1ccc(Cl)cc1)N1CCN(C(=O)COc2ccc(Cl)cc2)c2ccccc21`, the GI50 was 33.5 µM (inactive) in test [16]; 45.2 µM (inactive) in test [2]; > 100 µM (inactive) in [17]; 30.4 µM (inactive) in [3]; > 100 µM (inactive) in [5]; 50.7 µM (inactive) in test [6]. In addition, the GI50 in test [7] was 37.6 µM (inactive); in test [8] it was 91.2 µM (inactive); in [10] it was 70 µM (inactive); in [11], 20.6 µM (inactive); in test [18], 47.6 µM (inactive); in [12] it was 41.6 µM (inactive). The GI50 in [13] is 21.2 µM (inactive); in test [15] it was > 100 µM (inactive).
Consider `CC12CP(=O)(c3ccccc3)CC1C2(Cl)Cl` (stereo unspecified), for which the GI50 in test [16], in [2], in test [17], in test [3], in [5] and in [6] was > 100 µM (inactive) throughout. The GI50 in [7], in test [8], in test [9], in [11], in [18] and in test [13] was > 100 µM (inactive) throughout. For the same compound, the GI50 in test [14] and in [15] was > 100 µM (inactive) throughout.
As for `N#CC1(C=O)c2ccccc2C=CN1C(=O)c1ccccc1` (stereo unspecified), the GI50 was 76.2 µM (inactive) in test [16]; 20.5 µM (inactive) in test [1]; 37.3 µM (inactive) in test [2]; 35.8 µM (inactive) in [17]; 38.6 µM (inactive) in test [3]; 40.7 µM in test [4]. The GI50 in test [6] is 26.9 µM (inactive); in [7] it was 29.6 µM (inactive); in test [9], 34.9 µM (inactive); in test [18], 20.5 µM (inactive); in [12], 70.3 µM (inactive); in [13], > 100 µM (inactive). In addition, the GI50 in test [14] is 11.4 µM (inactive); in test [15] it was 4.3 µM (inactive).
`CCOC12OC3=C(CC1CC1=C(CCC1=O)O2)C(=O)CC3` (stereo unspecified): the GI50 in [16] is > 100 µM (inactive); in test [1] it was > 100 µM (inactive); in test [2], > 100 µM (inactive); in test [3], > 100 µM (inactive); in [4] it was over 100 µM; in [5] it was > 100 µM (inactive). Also, the GI50 in [6], in test [7], in test [8], in [9], in [10] and in [11] was > 100 µM (inactive) each time. The GI50 in [18], in [12], in test [14] and in [15] was > 100 µM (inactive) throughout.
